Laboratory results taken from patent publication US20230263792A1, “USE OF 2,3,5-SUBSTITUTED THIOPHENE COMPOUND FOR PREVENTING, ALLEVIATION, OR TREATING MASTOCYTOSIS” (PHAROS IBIO CO., LTD, priority 2020, published 2023).

Experiments:
[1] = system: inflammatory response caused by mastocytosis (HMC-1.2 mouse model); experiment: Spleen/body weight ratio in mastocytosis mouse model (inflammatory response); assay type: in vivo, NOD SCID female mice
Procedure: As mice, 6-8-week-old NOD SCID female mice (18 to 22 g) (GemPharmatech Co., Ltd.) were prepared. Mice were acclimatized for 7 days before use in the experiment, and mice with abnormal health were excluded from the experiment. Mice were bred in a cage (300×180×150 mm) at a 22±3° C. and a relative humidity of 40% to 70% with a 12-hr light/12-hr dark cycle. Mice were allowed access to sterilized dry granular food (Beijing Keaoxieli Feed Co., Ltd., Beijing, China) and water ad libitum for the entire experimental period except for the period specified in the protocol.
50 ml of HMC-1.2 cells suspension-cultured in a 75T flask were placed in a conical tube and centrifuged at 1,200 rpm for 2 minutes, centrifuged with DPBS (Dulbecco's Phosphate-Buffered Saline, Welgene) at 1,200 rpm for 2 minutes, washed, and then suspended in RPMI1640 (Welgene) without antibiotics and fetal bovine serum (FBS). Then, the cells were stained with trypan blue, counted with a hemocytometer, and then HMC-1.2 cells (1×10^6) in a mixture of 0.1 ml L-15 and Matrigel (BD, cat. No. 356234) (1:1) were subcutaneously injected into the right flanks of mice anesthetized by intraperitoneal administration of Avertin (250 mg/kg), thus inducing tumors.
Thereafter, when the average tumor volume reached 150 to 200 mm^3, 4 mice were assigned to each group so that the average tumor volume at each group and treatment time was the same between the groups. Then, each of imatinib at a dose of 90 mg/kg, sunitinib at doses of 20 and 40 mg/kg, and PHI-101 at doses of 7, 20, 40 and 80 mg/kg was administered orally to the mice once daily for 3 weeks. For oral administration, each compound was dissolved in 5% 1-methyl-2-pyrrolidone and then completely mixed in 15% Kolliphor, 30% PEG E400 HS15 and 50% 0.05M citric acid.
Specifically, 3 weeks after administering each drug to the mastocytosis mouse model of Example 3-1, the mice were sacrificed, the body weight and spleen weight were measured using a digital scale, and then the spleen/body weight ratio was calculated.

[2] = system: c-kit D816V mutant Ba/F3 cell line; experiment: Cell cycle FACS assay, c-kit D816V Ba/F3; assay type: cell-based; conditions: 1 μM, 24 hours, FIGS. 4 and 5
Procedure: The c-kit D816V mutant Ba/F3 cell line was treated with 1 μM of PHI-101, and then the SubG1/GO-1 population was analyzed by cell cycle FACS assay.
Specifically, the c-kit D816V mutant Ba/F3 cell line was adjusted to a concentration of 1×10^6 cells/ml and treated with each of PHI-101 and the control compound sunitinib at a concentration of 1 μM for 24 hours. Thereafter, the medium was removed, and the c-kit D816V mutant Ba/F3 cell line was fixed in 70% ethanol at 4° C. for 24 hours, and then incubated in a PBS buffer solution containing 40 μg/ml of propidium iodide (PI) and 100 μg/ml of RNase for 30 minutes to completely stain the total DNA. Cell cycle analysis of the stained cells was performed using a flow cytometer (FACS-C6, BD). The proportion of cells in G0/G1 phase, S phase and G2/M phase was measured, and based on the measurement results, the SubG1/G0-1 population was determined.

[3] = system: c-kit phosphorylation and downstream signaling (p-STAT5, p-AKT, p-ERK) in HMC-1.2 cell line; experiment: Western blot of c-kit phosphorylation and downstream signaling in HMC-1.2; assay type: cell-based; conditions: FIG. 6
Procedure: Specifically, the c-kit D816V mutant Ba/F3 cell line was dispensed at a concentration of 1×10^6 cells/ml, treated with each of the control compounds and PHI-101 at concentrations of 0.1, 1 and 10 μM, and then cultured for 2 hours. Next, lysates of the cells were obtained using lysis buffer (50 mM Tris-HCl pH 7.5, 1% NP40, 1 mM EDTA, 150 mM NaCl, 5 mM, Na3VO4 and 2.5 mM NaF, and a protease inhibitor cocktail). Equal amounts of the cell lysates were electrophoresed using 8% SDS-PAGE gel at 100 V for 1 hour and 30 minutes, and the separated protein was electrically transferred to nitrocellulose membranes. The membranes were blocked with 5% skim milk at room temperature for 30 minutes, and allowed to react with primary antibodies (diluted 1:5,000), including p-c-kit tyrosine 719 (Y719), p-STAT3 tyrosine 705 (Y705) and p-ERK1/2 threonine 202/tyrosine 204 (T202/Y204) at 4° C. for 16 to 20 hours. […] Next, the membranes were washed three times with TBST for 5 minutes each time and treated with a chemiluminescent substrate reagent, and the expression level of the protein was measured by detecting luminescence with an X-ray film in the dark.
The inhibitory activities of control compounds and PHI-101 against c-kit phosphorylation and downstream signaling (p-STAT5, p-AKT, p-ERK) in a mastocytosis cell line were measured, and as the control compounds, imatinib and sunitinib were used. […]

[4] = system: c-kit D816V mutant Ba/F3 cell line; experiment: Annexin V-PI FACS apoptosis analysis, c-kit D816V Ba/F3; assay type: cell-based; conditions: 0.1, 1 and 10 μM, 24 hours, FIG. 3
Procedure: Specifically, the c-kit D816V mutant Ba/F3 cell line was adjusted to a concentration of 1×10^6 cells/ml and treated with each of PHI-101 at concentrations of 0.1, 1 and 10 μM and the control compound sunitinib at concentrations of 1 and 10 μM for 24 hours. Thereafter, the medium was removed and the cells were washed once with 1 ml PBS. The PBS was removed by centrifugation at 1,000 rpm for 5 minutes. The cells were dissolved in 100 μl of PBS containing Ca^2+ and Mg^2+ and allowed to react with 5 μl of Annexin V for 20 minutes. After completion of the reaction, 400 μl of PBS containing Ca^2+ and Mg^2+ was added, and 5 μl of propidium iodide (PI) was added, and then the degree of apoptotic cell death was analyzed by FACS (fluorescence activated cell sorter) assay using a flow cytometer (FACS-C6, BD).

[5] = 7 mg/kg oral once daily for 3 weeks
[6] = 20 mg/kg oral once daily for 3 weeks
[7] = 40 mg/kg oral once daily for 3 weeks
[8] = 80 mg/kg oral once daily for 3 weeks

NC(=O)Nc1cc(C#Cc2cccc(F)c2)sc1C(=O)N[C@H]1CCCNC1 [PHI-101]
Spleen/body weight ratio % of control [1, 5]: 105.0%
Spleen/body weight ratio Inhibition (%) [1, 5]: −5%
Spleen/body weight ratio % of control [1, 6]: 95.0%
Spleen/body weight ratio Inhibition (%) [1, 6]: 5%
Spleen/body weight ratio % of control [1, 7]: 55.7%
Spleen/body weight ratio Inhibition (%) [1, 7]: 44.3%
Spleen/body weight ratio % of control [1, 8]: 46.3%
Spleen/body weight ratio Inhibition (%) [1, 8]: 53.7%
spleen/body weight ratio compared to control group ([1]; 7, 20, 40 and 80 mg/kg, FIGS. 13 and 14): decreased the spleen/body weight ratio in a concentration-dependent manner
SubG1/G0-1 population (cell cycle progression) [2]: SubG1/G0-1 population was increased
downstream signaling inhibition ([3]; 0.1 μM): strongly inhibited downstream signaling
c-kit phosphorylation and downstream signaling ([3]; 0.01, 0.1 and 1 μM): decreased c-kit phosphorylation and downstream signaling in a concentration-dependent manner
apoptosis induction (Annexin V-PI FACS) [4]: strongly induced apoptosis even at a concentration of 0.1 μM
